# Experimental data as given in US20100113421A1, “NON-NUCLEOSIDE REVERSE TRANSCRIPTASE INHIBITORS” (priority 2006, published 2010).
# System: HIV strain containing the Y181C mutation
# Assay: Spread assay, Y181C mutant strain
# Type: cell-based
# Conditions: Human immunodeficiency virus 1; spread assay, 10% FBS, Y181C mutant strain; read-out: CIC95
# Experimental: Assays for the inhibition of acute HIV-1 infection of T-lymphoid cells (alternatively referred to herein as the “spread assay”) were conducted in accordance with Vacca, J. P. et al., Proc. Natl. Acad. Sci. USA 1994, 91: 4096. The assays (using 10% FBS) tested for inhibition of wild type HIV-1 and of HIV strains containing the Y181C or K103N mutation. […] (Note that the compound of Example 6 was tested only up to a 833 nM concentration and the CIC95 value was determined to be >833 nM. The compound of Example 78 was not tested in the Y1818C assay.) The compounds of Examples 1 to 119 (including Examples 70A and 70B) had CIC95 values of less than 1000 nanomolar in the assay employing the K103N mutant strain. In an analogous assay employing a mutant strain containing both the K103N and Y181C mutations, the compounds of Examples 70A, 70B and 78-115 had CIC95 values of less than 1000 nanomolar.
row,Compound,IC95 [µM]
1,"Cc1c(C(=O)N(C)Cc2ccc(Cl)cc2Cl)[nH]c(C(N)=O)c1S(=O)(=O)c1ccccc1 [Example 1, N-(2,4-Dichlorobenzyl)-N,3-dimethyl-4-(1-phenylsulfonyl)-1H-pyrrole-2,5-dicarboxamide]",< 8
2,"Cc1c(C(=O)N(C)Cc2ccc(Cl)cc2Cl)[nH]c(C(N)=O)c1S(=O)(=O)c1cc(Cl)cc(Cl)c1 [Example 2, N-(2,4-Dichlorobenzyl)-4-[(3,5-dichlorophenyl)sulfonyl]-N,3-dimethyl-1H-pyrrole-2,5-dicarboxamide]",< 8
3,"Cc1cc(C)cc(S(=O)(=O)c2c(C(N)=O)[nH]c(C(=O)N(C)Cc3ccccc3)c2C)c1 [Example 3, N-Benzyl-N,3-dimethyl-4-(3,5-dimethylphenylsulfonyl)-1H-pyrrole-2,5-dicarboxamide]",< 8
4,"Cc1c(C(=O)N(C)Cc2ccc(F)cc2Cl)[nH]c(C(N)=O)c1S(=O)(=O)c1ccccc1 [Example 4, N-(2-Chloro-4-fluorobenzyl)-N,3-dimethyl-4-(phenylsulfonyl)-1H-pyrrole-2,5-dicarboxamide]",< 8
5,"Cc1c(C(=O)N(C)Cc2ccccc2Cl)[nH]c(C(N)=O)c1S(=O)(=O)c1cccc2ccccc12 [Example 5, N-(2-Chlorobenzyl)-N,3-dimethyl-4-(1-naphthylsulfonyl)-1H-pyrrole-2,5-dicarboxamide]",< 8
6,"Cc1c(C(=O)N(C)Cc2ccccc2F)[nH]c(C(N)=O)c1S(=O)(=O)c1ccccc1 [Example 7, N-(2-fluorobenzyl)-N,3-dimethyl-4-(phenylsulfonyl)-1H-pyrrole-2,5-dicarboxamide]",< 8
7,"Cc1c(C(=O)N(C)Cc2ccccc2Cl)[nH]c(C(N)=O)c1S(=O)(=O)c1ccccc1 [Example 8, N-(2-chlorobenzyl)-N,3-dimethyl-4-(phenylsulfonyl)-1H-pyrrole-2,5-dicarboxamide]",< 8
8,"Cc1c(C(=O)N(C)Cc2ccccc2Br)[nH]c(C(N)=O)c1S(=O)(=O)c1ccccc1 [Example 9, N-(2-bromobenzyl)-N,3-dimethyl-4-(phenylsulfonyl)-1H-pyrrole-2,5-dicarboxamide]",< 8
9,"Cc1c(C(=O)N(C)Cc2cccc(Cl)c2)[nH]c(C(N)=O)c1S(=O)(=O)c1ccccc1 [Example 10, N-(3-chlorobenzyl)-N,3-dimethyl-4-(phenylsulfonyl)-1H-pyrrole-2,5-dicarboxamide]",< 8
10,"Cc1c(C(=O)N(C)Cc2ccc(Br)cc2)[nH]c(C(N)=O)c1S(=O)(=O)c1ccccc1 [Example 11, N-(4-bromobenzyl)-N,3-dimethyl-4-(phenylsulfonyl)-1H-pyrrole-2,5-dicarboxamide]",< 8
11,"Cc1c(C(=O)N(C)Cc2ccc(Cl)cc2F)[nH]c(C(N)=O)c1S(=O)(=O)c1ccccc1 [Example 12, N-(4-chloro-2-fluorobenzyl)-N,3-dimethyl-4-(phenylsulfonyl)-1H-pyrrole-2,5-dicarboxamide]",< 8
12,"Cc1c(C(=O)N(C)Cc2cccc(Cl)c2Cl)[nH]c(C(N)=O)c1S(=O)(=O)c1ccccc1 [Example 13, N-(2,3-dichlorobenzyl)-N,3-dimethyl-4-(phenylsulfonyl)-1H-pyrrole-2,5-dicarboxamide]",< 8
13,"Cc1c(C(=O)N(C)Cc2ccc(Cl)c(Cl)c2)[nH]c(C(N)=O)c1S(=O)(=O)c1ccccc1 [Example 14, N-(3,4-dichlorobenzyl)-N,3-dimethyl-4-(phenylsulfonyl)-1H-pyrrole-2,5-dicarboxamide]",< 8
14,"Cc1c(C(=O)N(C)Cc2ccc(S(C)(=O)=O)cc2Cl)[nH]c(C(N)=O)c1S(=O)(=O)c1ccccc1 [Example 15, N-(2-chloro-4-methylsulfonylbenzyl)-N,3-dimethyl-4-(phenylsulfonyl)-1H-pyrrole-2,5-dicarboxamide]",< 8
15,"Cc1c(C(=O)N(C)Cc2ccccc2F)[nH]c(C(N)=O)c1S(=O)(=O)c1cccc(F)c1 [Example 16, N-(2-fluorobenzyl)-N,3-dimethyl-4-(3-fluorophenylsulfonyl)-1H-pyrrole-2,5-dicarboxamide]",< 8
16,"Cc1c(C(=O)N(C)Cc2ccccc2Cl)[nH]c(C(N)=O)c1S(=O)(=O)c1cccc(F)c1 [Example 17, N-(2-chlorobenzyl)-N,3-dimethyl-4-(3-fluorophenylsulfonyl)-1H-pyrrole-2,5-dicarboxamide]",< 8
17,"Cc1c(C(=O)N(C)Cc2ccc(Cl)cc2F)[nH]c(C(N)=O)c1S(=O)(=O)c1cccc(F)c1 [Example 18, N-(4-chloro-2-fluorobenzyl)-N,3-dimethyl-4-(3-fluorophenylsulfonyl)-1H-pyrrole-2,5-dicarboxamide]",< 8

row,Compound,IC95 [µM]
1,"Cc1c(C(=O)N(C)Cc2ccc(Cl)cc2Cl)[nH]c(C(N)=O)c1S(=O)(=O)c1cccc(F)c1 [Example 19, N-(2,4-dichlorobenzyl)-N,3-dimethyl-4-(3-fluorophenylsulfonyl)-1H-pyrrole-2,5-dicarboxamide]",< 8
2,"Cc1c(C(=O)N(C)Cc2ccccc2Cl)[nH]c(C(N)=O)c1S(=O)(=O)c1cccc(Cl)c1 [Example 20, N-(2-chlorobenzyl)-N,3-dimethyl-4-(3-chlorophenylsulfonyl)-1H-pyrrole-2,5-dicarboxamide]",< 8
3,"Cc1c(C(=O)N(C)Cc2ccc(Cl)cc2Cl)[nH]c(C(N)=O)c1S(=O)(=O)c1cccc(Cl)c1 [Example 21, N-(2,4-dichlorobenzyl)-N,3-dimethyl-4-(3-chlorophenylsulfonyl)-1H-pyrrole-2,5-dicarboxamide]",< 8
4,"Cc1c(C(=O)N(C)Cc2ccccc2)[nH]c(C(N)=O)c1S(=O)(=O)c1cccc(C(F)(F)F)c1 [Example 22, N-benzyl-N,3-dimethyl-4-(3-trifluoromethylphenylsulfonyl)-1H-pyrrole-2,5-dicarboxamide]",< 8
5,"Cc1c(C(=O)N(C)Cc2ccc(Cl)cc2Cl)[nH]c(C(N)=O)c1S(=O)(=O)c1cccc(C(F)(F)F)c1 [Example 23, N-(2,4-dichlorobenzyl)-N,3-dimethyl-4-(3-trifluoromethylphenylsulfonyl)-1H-pyrrole-2,5-dicarboxamide]",< 8
6,"Cc1cc(C)cc(S(=O)(=O)c2c(C(N)=O)[nH]c(C(=O)N(C)Cc3ccccc3F)c2C)c1 [Example 24, N-(2-fluorobenzyl)-N,3-dimethyl-4-(3,5-dimethylphenylsulfonyl)-1H-pyrrole-2,5-dicarboxamide]",< 8
7,"Cc1cc(C)cc(S(=O)(=O)c2c(C(N)=O)[nH]c(C(=O)N(C)Cc3ccccc3Cl)c2C)c1 [Example 25, N-(2-chlorobenzyl)-N,3-dimethyl-4-(3,5-dimethyiphenylsulfonyl)-1H-pyrrole-2,5-dicarboxamide]",< 8
8,"Cc1cc(C)cc(S(=O)(=O)c2c(C(N)=O)[nH]c(C(=O)N(C)Cc3ccc(Cl)cc3F)c2C)c1 [Example 26, N-(4-chloro-2-fluorobenzyl)-N,3-dimethyl-4-(3,5-dimethylphenylsulfonyl)-1H-pyrrole-2,5-dicarboxamide]",< 8
9,"Cc1cc(C)cc(S(=O)(=O)c2c(C(N)=O)[nH]c(C(=O)N(C)Cc3ccc(Cl)cc3Cl)c2C)c1 [Example 27, N-(2,4-dichlorobenzyl)-N,3-dimethyl-4-(3,5-dimethylphenylsulfonyl)-1H-pyrrole-2,5-dicarboxamide]",< 8
10,"Cc1c(C(=O)N(C)Cc2ccccc2)[nH]c(C(N)=O)c1S(=O)(=O)c1cc(F)cc(Cl)c1 [Example 28, N-benzyl-N,3-dimethyl-4-(3-chloro-5-fluorophenylsulfonyl)-1H-pyrrole-2,5-dicarboxamide]",< 8
11,"Cc1c(C(=O)N(C)Cc2ccccc2F)[nH]c(C(N)=O)c1S(=O)(=O)c1cc(F)cc(Cl)c1 [Example 29, N-(2-fluorobenzyl)-N,3-dimethyl-4-(3-chloro-5-fluorophenylsulfonyl)-1H-pyrrole-2,5-dicarboxamide]",< 8
12,"Cc1c(C(=O)N(C)Cc2ccccc2Cl)[nH]c(C(N)=O)c1S(=O)(=O)c1cc(F)cc(Cl)c1 [Example 30, N-(2-chlorobenzyl)-N,3-dimethyl-4-(3-chloro-5-fluorophenylsulfonyl)-1H-pyrrole-2,5-dicarboxamide]",< 8
13,"Cc1c(C(=O)N(C)Cc2ccc(Cl)cc2F)[nH]c(C(N)=O)c1S(=O)(=O)c1cc(F)cc(Cl)c1 [Example 31, N-(4-chloro-2-fluorobenzyl)-N,3-dimethyl-4-(3-chloro-5-fluorophenylsulfonyl)-1H-pyrrole-2,5-dicarboxamide]",< 8
14,"Cc1c(C(=O)N(C)Cc2ccccc2)[nH]c(C(N)=O)c1S(=O)(=O)c1cc(Cl)cc(Cl)c1 [Example 32, N-benzyl-N,3-dimethyl-4-(3,5-dichlorophenylsulfonyl)-1H-pyrrole-2,5-dicarboxamide]",< 8
15,"Cc1c(C(=O)N(C)Cc2ccccc2F)[nH]c(C(N)=O)c1S(=O)(=O)c1cc(Cl)cc(Cl)c1 [Example 33, N-(2-fluorobenzyl)-N,3-dimethyl-4-(3,5-dichlorophenylsulfonyl)-1H-pyrrole-2,5-dicarboxamide]",< 8
16,"Cc1c(C(=O)N(C)Cc2ccccc2Cl)[nH]c(C(N)=O)c1S(=O)(=O)c1cc(Cl)cc(Cl)c1 [Example 34, N-(2-chlorobenzyl)-N,3-dimethyl-4-(3,5-dichlorophenylsulfonyl)-1H-pyrrole-2,5-dicarboxamide]",< 8

# Same assay, conditions: spread assay, Y181C mutant strain; tested only up to a 833 nM concentration; read-out: CIC95
row,Compound,IC95 [µM]
1,"Cc1c(C(=O)N(C)Cc2ccccc2Cl)[nH]c(C(N)=O)c1S(=O)(=O)c1ccc2ccccc2c1 [Example 6, N-(2-Chlorobenzyl)-N,3-dimethyl-4-(2-naphthylsulfonyl)-1H-pyrrole-2,5-dicarboxamide]",> 0.833
